Source: patent publication US6903086B2, “Alkoxycarbonylamino benzoic acid or alkoxycarbonylamino tetrazolyl phenyl derivatives as IP antagonists” (SYNTEX (U.S.A.) LLC, priority 2001, dated 2005)

melting point	Structure (SMILES)
127.5 to 134 °C	O=C(Nc1ccc(-c2ccccc2)cc1-c1nnn[nH]1)OCc1cc2cc(-c3cc(Cl)cc(Cl)c3)ccc2o1 [compound 502, [3-(1H-tetrazol-5-yl)-biphenyl-4-yl]-carbamic acid 5-(3,5-dichloro-phenyl)-benzofuran-2-ylmethyl ester]
155 to 158 °C	O=C(Nc1ccccc1-c1nnn[nH]1)OCc1cc2cc(-c3ccc(F)cc3)ccc2o1 [compound 503, [2-(1H-tetrazol-5-yl)-phenyl]-carbamic acid 5-(4-fluoro-phenyl)-benzofuran-2-ylmethyl ester]
121 to 138 °C	O=C(Nc1ccc(Br)cc1-c1nnn[nH]1)OCc1cc2cc(-c3ccc(F)cc3)ccc2o1 [compound 504, [4-bromo-2-(1H-tetrazol-5-yl)-phenyl]-carbamic acid 5-(4-fluoro-phenyl)-benzofuran-2-ylmethyl ester]
209 to 211 °C	O=C(Nc1ccc(-c2ccc(F)cc2)cc1-c1nnn[nH]1)OCc1cc2cc(-c3ccc(F)cc3)ccc2o1 [compound 505, [4′-fluoro-3-(1H-tetrazol-5-yl)-biphenyl-4-yl]-carbamic acid 5-(4-fluoro-phenyl)-benzofuran-2-ylmethyl ester]
121 to 125.2 °C	O=C(Nc1ccc(F)cc1-c1nnn[nH]1)OCc1cc2cc(-c3ccc(F)cc3)ccc2o1 [compound 506, [4-fluoro-2-(1H-tetrazol-5-yl)-phenyl]-carbamic acid 5-(4-fluoro-phenyl)-benzofuran-2-ylmethyl ester]
166 to 190 °C	O=C(Nc1ccc(Br)cc1-c1nnn[nH]1)OCc1cc2cc(-c3ccccc3)ccc2o1 [compound 507, [4-bromo-2-(1H-tetrazol-5-yl)-phenyl]-carbamic acid 5-phenyl-benzofuran-2-ylmethyl ester]
213 to 216.5 °C	O=C(Nc1ccccc1-c1nnn[nH]1)OCc1cc2cc(-c3ccccc3)ccc2o1 [compound 508, [2-(1H-tetrazol-5-yl)-phenyl]-carbamic acid 5-phenyl-benzofuran-2-ylmethyl ester]
192 to 230 °C	O=C(Nc1ccc(-c2ccccc2)cc1-c1nnn[nH]1)OCc1cc2cc(-c3ccc(F)cc3)ccc2o1 [compound 509, [3-(1H-tetrazol-5-yl)-biphenyl-4-yl]-carbamic acid 5-(4-fluoro-phenyl)-benzofuran-2-ylmethyl ester]
234.5 to 235.6 °C	O=C(Nc1ccc(-c2ccccc2)cc1C(=O)O)OCc1ccc(-c2ccccc2)cc1 [compound 601, 4-(biphenyl-4-ylmethoxycarbonylamino)-biphenyl-3-carboxylic acid]
176.4 to 178.5 °C	Nc1cccc(NC(=O)OCc2cc3cc(-c4ccc(F)cc4)ccc3o2)c1C(=O)O [compound 701, 2-amino-6-[5-(4-fluorophenyl)benzofuran-2-ylmethoxycarbonylamino]benzoic acid]
157.5 to 158.9 °C	O=C(Nc1cccc(Cl)c1C(=O)O)OCCOc1ccc(-c2ccccc2)cc1 [compound 801, 2-[2-(biphenyl-4-yloxy)-ethoxycarbonylamino]-6-chloro-benzoic acid]
175.5 to 177.8 °C	Cc1ccc(NC(=O)OCCOc2ccc(-c3ccccc3)cc2)c(C(=O)O)c1 [compound 802, 2-[2-(biphenyl-4-yloxy)-ethoxycarbonylamino]-5-methyl-benzoic acid]
